US20250214977A1, “STAT6 INHIBITORS AND USES THEREOF” (Kymera Therapeutics, Inc., priority 2024, published 2025)

The compounds below were run on Phosphorylation of STAT6 in human A549 cells (assay: Phosphorylated STAT6 (pSTAT6) flow cytometry assay in human A549 cells). Details: read-out: STAT6 IL4 pSTAT6 assay in A549 cells: Average IC50.
Assay type: cell-based
From the text: Example 3. Phosphorylated STAT6 (pSTAT6) Flow Cytometry Assay in Human A549 Cells
Phosphorylation of STAT6 in human A549 cells was quantitatively measured using flow cytometry technology.
For `COc1ccc(N2CCN(C(=O)c3cc4c(-c5ccccc5OC)cc(C5=CCCN(C(=O)CCn6ccnn6)C5)c(F)c4[nH]3)CC2)cc1` [Example I-960], the IC50 was < 100 nM.
With `COc1ccccc1-c1cc(C2=CCCN(C(=O)CCn3ccnn3)C2)c(F)c2[nH]c(C(=O)N3CCN(c4cc(C)c5ncnn5c4)CC3)cc12` [Example I-909] the IC50 was < 100 nM.
`COc1cnccc1-c1cc(C2=CCCN(C(C)=O)C2)c(F)c2[nH]c(C(=O)N3CCN(c4ncc(F)cc4OC)CC3)cc12` [Example I-697] was tested, and the IC50 was > 100000 nM.
With `COc1cc(F)cnc1N1CCN(C(=O)c2cc3c(-c4ccc5c(c4)OCCCO5)cc(C4=CCCN(C(=O)CCn5ccnn5)C4)c(F)c3[nH]2)CC1` [Example I-1148] the IC50 was < 100 nM.
In the case of `COc1cnccc1-c1cc(C2=CCCN(C(=O)CCn3ccnn3)C2)c(F)c2[nH]c(C(=O)N3CCN(c4ncc(F)cc4OC)CC3)cc12` [Example I-666], the IC50 is reported as > 100000 nM.
Compound `COc1ccccc1-c1cc(C2=CCCN(C(=O)CCn3ccnn3)C2)c(F)c2[nH]c(C(=O)Nc3cccn(C)c3=O)cc12` [Example I-1027] has an IC50 of 100 to 1000 nM.
With `COc1ccccc1-c1cc(C2=CCCN(C(=O)CCn3ccnn3)C2)c(F)c2[nH]c(C(=O)N3CCN(c4ccccc4OC(F)(F)F)CC3)cc12` [Example I-420] the IC50 was 100 to 1000 nM.
For `COc1ccccc1C(=O)N1CCN(C(=O)c2cc3c(-c4ccccc4OC)cc(C4=CCCN(C(=O)CCn5ccnn5)C4)c(F)c3[nH]2)CC1` [Example I-991], the IC50 was < 100 nM.
In the case of `COc1ccccc1-c1cc(C2=CCCN(C(=O)CCn3ccnn3)C2)c(F)c2[nH]c(C(=O)N3CCN(c4cnc5ncccn45)CC3)cc12` [Example I-1017], the IC50 is reported as < 100 nM.
For `COc1cnc(N2CCN(C(=O)c3cc4c(-c5ccncc5OC)cc(C5=CCCN(C(=O)CCn6ccnn6)C5)c(F)c4[nH]3)CC2)c(OC)c1` [Example I-436], the IC50 was < 100 nM.
With `COc1ccccc1-c1cc(C2=CCCN(C(=O)CCn3ccnn3)C2)c(F)c2[nH]c(C(=O)N3CCN(c4ccnnc4O)CC3)cc12` [Example I-908] the IC50 was < 100 nM.
`CCn1cc2c(n1)CN(C(=O)c1cc3c(-c4ccccc4OC)cc(C4=CCCN(C(=O)CCn5ccnn5)C4)c(F)c3[nH]1)C2` [Example I-505] gave an IC50 of 10000 to 100000 nM.
In the case of `CNc1ccc(-c2cc(C3=CCCN(C(=O)C4Cc5c(N)cccc5CN4C=O)C3)cc3cc(C(=O)N(C)C)oc23)c(OC)c1` (stereo not drawn) [Example I-1063], the IC50 is reported as < 100 nM.
`COc1ccccc1-c1cc(C2=CCCN(C(=O)CCn3ccnn3)C2)c(F)c2[nH]c(C(=O)N3CCN(c4cnn5ccncc45)CC3)cc12` [Example I-1015] was tested, and the IC50 was < 100 nM.
For `COc1ccccc1-c1cc(C2=CCCN(C(=O)CCn3ccnn3)C2)c(F)c2[nH]c(C(=O)N3CCN(c4ncccc4Cl)CC3)cc12` [Example I-324], the IC50 was < 100 nM.
`COc1ccccc1-c1cc(C2=CCCN(C(=O)CCn3ccnn3)C2)c(F)c2[nH]c(C(=O)N3CCN(c4ccc5c(c4)C=NCC5)CC3)cc12` [Example I-918] was tested, and the IC50 was < 100 nM.
For `CCN1CCCCC1c1cc(C2=CCCN(C(=O)CCn3ccnn3)C2)c(F)c2[nH]c(C(=O)N3CCN(c4ncc(F)cc4OC)CC3)cc12` (stereo not drawn) [Example I-784], the IC50 was < 100 nM.
`CCc1ncccc1-c1cc(C(=O)N2CCN(c3ncc(F)cc3OC)CC2)cc2cc(C3=CCCN(C(=O)C(=O)O)C3)n(CC3CC3)c12` [Example I-797] was tested, and the IC50 was > 100000 nM.
With `CCc1ccc(OC)c(N2CCN(C(=O)c3cc4c(-c5cnccc5OC)cc(C5=CCCN(C(=O)CCn6ccnn6)C5)c(F)c4[nH]3)CC2)n1` [Example I-466] the IC50 was < 100 nM.
With `CN(C)C(=O)c1cc2cc(C3=CCCN(C(=O)CCn4ccnn4)C3)cc(CN3CC(N)C3)c2o1` [Example I-1180] the IC50 was < 100 nM.
`C[C@@H](C(=O)N1CCC=C(c2ccc3cc(C(=O)N(C)C)[nH]c3c2)C1)n1ccccc1=O` [Example I-834] was tested, and the IC50 was 100 to 1000 nM.
Work on `COc1ccccc1-c1cc(C2=CCCN(C(=O)[C@@H]3Cc4ccccc4CN3C=O)C2)cc2cc(C(=O)N(C)C)oc12` (single isomer, unassigned) [Example I-805] yielded an IC50 of 10000 to 100000 nM.
`COc1ccccc1-c1cc(C2=CCCN(C(=O)CCn3ccnn3)C2)c(F)c2[nH]c(C(=O)N3CCN(c4cn(C)c(=O)n(C)c4=O)CC3)cc12` [Example I-949] was tested, and the IC50 was < 100 nM.
With `COc1ccccc1-c1cc(C2=CCCN(C(=O)CCn3ccnn3)C2)c(F)c2[nH]c(C(=O)N3CCN(Cc4noc(C)n4)CC3)cc12` [Example I-1201] the IC50 was < 100 nM.
`CCc1cc(C)ncc1-c1cc(C2=CCCN(C(=O)CCn3ccnn3)C2)c(F)c2[nH]c(C(=O)N3CCN(c4ncc(F)cc4OC)CC3)cc12` [Example I-742] was tested, and the IC50 was < 100 nM.
With `COc1cnccc1-c1cc(C2=CCCN(C(=O)CCn3ccnn3)C2)c(F)c2[nH]c(C(=O)N3CCN(C4CC4)CC3)cc12` [Example I-605] the IC50 was < 100 nM.
For `COc1cc(F)cnc1N1CCN(C(=O)c2cc3c(-c4cnn(-c5ccccc5)c4C)cc(C4=CCCN(C(=O)CCn5ccnn5)C4)c(F)c3[nH]2)CC1` [Example I-625], the IC50 was < 100 nM.
`COc1ccccc1-c1cc(C2=CCCN(C(=O)CCn3ccnn3)C2)c(F)c2[nH]c(C(=O)N3CCN(C)CC3)cc12` [Example I-841] was tested, and the IC50 was < 100 nM.
In the case of `CN(C)C(=O)c1cc2cc(C3=CCCN(C(=O)CCn4ccnn4)C3)cc(NCc3ccc(F)cc3)c2o1` [Example I-872], the IC50 is reported as 100 to 1000 nM.
In the case of `COc1cc(F)cnc1N1CCN(C(=O)c2cc3c(-c4ccc(=O)n(Cc5ccccc5)c4)cc(C4=CCCN(C(=O)CCn5ccnn5)C4)c(F)c3[nH]2)CC1` [Example I-1136], the IC50 is reported as < 100 nM.
For `COc1ccncc1-c1cc(C2=CCCN(C(=O)CCn3ccnn3)C2)c(F)c2[nH]c(C(=O)N3CCN(c4ccc(F)cc4OC)CC3)cc12` [Example I-482], the IC50 was < 100 nM.
With `CCn1nccc1-c1cc(C2=CCCN(C(C)=O)C2)c(F)c2[nH]c(C(=O)N3Cc4cnn(CC)c4C3)cc12` [Example I-1176] the IC50 was < 100 nM.
For `CCOc1ccccc1-c1cc(C2=CCCN(C(=O)CCn3ccnn3)C2)c(F)c2[nH]c(C(=O)N3CCN(c4ncccc4OC)CC3)cc12` [Example I-412], the IC50 was > 100000 nM.
With `CCc1ccc(-c2cc(C3=CCCN(C(=O)CCn4ccnn4)C3)c(F)c3[nH]c(C(=O)N4Cc5cnn(CC)c5C4)cc23)c(C)n1` [Example I-761] the IC50 was > 100000 nM.
In the case of `COc1ccccc1-c1cc(C2=CCCN(C(=O)CCn3ccnn3)C2)c(F)c2[nH]c(C(=O)N3CCN(c4ccc(O)cc4)CC3)cc12` [Example I-867], the IC50 is reported as < 100 nM.
With `CCC1=C(c2cc(C3=CCCN(C(=O)CCn4ccnn4)C3)c(F)c3[nH]c(C(=O)N4CCN(c5ncc(F)cc5OC)CC4)cc23)CCNC1` [Example I-731] the IC50 was < 100 nM.
`CCC1=C(c2cc(C3=CCCN(C(=O)CCn4ccnn4)C3)c(F)c3[nH]c(C(=O)N4CCN(c5ncc(F)cc5OC)CC4)cc23)CN(C)C1` [Example I-782] was tested, and the IC50 was < 100 nM.
In the case of `CCc1cnccc1-c1cc(C2=CCCN(C(=O)CCn3ccnn3)C2)c(F)c2[nH]c(C(=O)N3CCN(c4ncccc4OC)CC3)cc12` [Example I-608], the IC50 is reported as > 100000 nM.
Work on `CN(C)C(=O)c1cc2ccc(C3=CCCN(C(=O)CCn4ccnn4)C3)cc2s1` [Example I-816] yielded an IC50 of 100 to 1000 nM.
For `COc1ccccc1-c1cc(C2=CCCN(C(=O)CCn3cccn3)C2)c(F)c2[nH]c(C(=O)N3CCN(c4ncccc4OC4CC4)CC3)cc12` [Example I-345], the IC50 was < 100 nM.
`CC(=O)N1CCC=C(c2cc(-c3ccccc3N(C)C)c3cc(C(=O)N(C)C)[nH]c3c2F)C1` [Example I-1093] was tested, and the IC50 was 100 to 1000 nM.
For `COc1cccnc1N1CCN(C(=O)c2cc3c(-c4ccc(OC)c5c4OCCO5)cc(C4=CCCN(C(=O)CCn5ccnn5)C4)c(F)c3[nH]2)CC1` [Example I-583], the IC50 was > 100000 nM.
For `CCn1ncc2c1CN(C(=O)c1cc3c(-c4ccncc4OC)cc(C4=CCCN(C(C)=O)C4)c(F)c3[nH]1)C2` [Example I-715], the IC50 was 10000 to 100000 nM.
In the case of `COc1ccccc1-c1cc(C2=CCCN(C(=O)CCn3ccnn3)C2)c(F)c2[nH]c(C(=O)N3CCN(Cc4ccncc4)CC3)cc12` [Example I-858], the IC50 is reported as < 100 nM.
`COc1cc(F)cnc1N1CCN(C(=O)c2cc3c(-c4ccc(C#N)c(C)c4)cc(C4=CCCN(C(=O)CCn5ccnn5)C4)c(F)c3[nH]2)CC1` [Example I-1139] was tested, and the IC50 was < 100 nM.
`COc1cccnc1C1=CCN(C(=O)c2cc3c(-c4cnc5ccccc5c4OC)cc(C4=CCCN(C(=O)CCn5ccnn5)C4)c(F)c3[nH]2)CC1` [Example I-451] was tested, and the IC50 was < 100 nM.
`COC(=O)c1cc(N2CCN(C(=O)c3cc4c(-c5ccccc5OC)cc(C5=CCCN(C(=O)CCn6ccnn6)C5)c(F)c4[nH]3)CC2)cn1C` [Example I-1004] was tested, and the IC50 was < 100 nM.
For `COc1ccccc1-c1cc(C2=CCCN(C(=O)CCn3ccnn3)C2)c(F)c2[nH]c(C(=O)N3CCC(c4ccccc4OC)CC3)cc12` [Example I-422], the IC50 was < 100 nM.
In the case of `COc1cc(F)c(F)cc1-c1cc(C2=CCCN(C(=O)CCn3ccnn3)C2)c(F)c2[nH]c(C(=O)N3CCN(c4ncccc4OC)CC3)cc12` [Example I-559], the IC50 is reported as < 100 nM.
`COc1ccccc1-c1cc(C2=CCCN(C(=O)CCn3ccnn3)C2)c(F)c2[nH]c(C(=O)N3CCN(c4c(F)cccc4OC)CC3)cc12` [Example I-367] was tested, and the IC50 was < 100 nM.
With `CN(C)CCN(C)C(=O)c1cc2cc(C3=CCCN(C(=O)CCn4ccnn4)C3)ccc2o1` [Example I-844] the IC50 was 100 to 1000 nM.
With `COc1ccccc1-c1cc(C2=CCCN(C(=O)CCn3ccnn3)C2)c(F)c2[nH]c(C(=O)N3CCN(c4ccccc4C(F)(F)F)CC3)cc12` [Example I-968] the IC50 was 100 to 1000 nM.
In the case of `COc1ccccc1-c1cc(C2=CCCN(C(=O)CCn3ccnn3)C2)c(F)c2[nH]c(C(=O)N3CCN(c4c(C)ccc5c4cnn5C)CC3)cc12` [Example I-928], the IC50 is reported as < 100 nM.
`COc1cc(F)cnc1N1CCN(C(=O)c2cc3c(C4=CCN(C(C)C)CC4)cc(C4=CCCN(C(=O)CCn5ccnn5)C4)c(F)c3[nH]2)CC1` [Example I-1133] was tested, and the IC50 was < 100 nM.
`COc1ccccc1-c1cc(C2=CCCN(C(=O)CCn3cccn3)C2)c(F)c2[nH]c(C(=O)N3CCN(c4cc5cc[nH]c5nc4C#N)CC3)cc12` [Example I-494] was tested, and the IC50 was > 100000 nM.
In the case of `COc1cc(F)cnc1N1CCN(C(=O)c2cc3c(-c4ccnc(N5CCN(C)CC5)c4)cc(C4=CCCN(C(=O)CCn5ccnn5)C4)c(F)c3[nH]2)CC1` [Example I-617], the IC50 is reported as < 100 nM.
`COc1ccccc1-c1cc(C2=CCCN(C(=O)CCn3ccnn3)C2)c(F)c2[nH]c(C(=O)N3CCN(c4cnc(SC)n5cnnc45)CC3)cc12` [Example I-910] was tested, and the IC50 was < 100 nM.
